The values below come from publication PMC11279160 (Microorganisms, 2024).

Like-named read-outs stand apart in the source and are kept apart here.

Data set [1] concerns L. (L.) amazonensis intracellular amastigotes. Kind of data set: Activity against intramacrophageal amastigotes in infected J774A.1 macrophages. The data set is classed as cell-based, Leishmania (Leishmania) amazonensis. Particulars: for EC50: read-out: Intracellular Amastigotes EC50; for reduction in macrophage infection rate / reduction in the number of internalized amastigotes per infected macrophage: compared to negative control. The procedure:
Macrophages were added to 24-well culture plates containing complete RPMI medium and sterile 13 mm coverslips, 1 × 10^5 J774A.1, and for cell adhesion incubated at 37 °C and 5% CO2 for 3 h. The medium was then removed, and three washes with PBS at 37 °C to remove non-adherent cells were performed. New medium, together with metacyclic promastigote forms in a proportion of 10 promastigotes/macrophage, was then added to the wells for infection and then incubated for another 4 h at 37 °C and 5% of CO2. The medium was then removed again and the plate washed with PBS to remove non-internalized […]. […] Subsequently, the coverslips were removed, stained with a quick panoptic kit, and mounted with Entelan®. In each coverslip, 300 macrophages were counted, together with the number of internalized amastigotes through optical microscopy at 1000× magnification. For the negative control, complete RPMI medium with 0.5% DMSO was used. At the end of the macrophage infection assay, the supernatant was stored at −20 °C for the subsequent evaluation of NO production.

For data set [2], the system named is L. (L.) amazonensis axenic amastigotes. In words: Growth inhibition of axenic amastigotes, MTT assay, 72 h. The data set is classed as cell-based, Leishmania (Leishmania) amazonensis. Particulars: for EC50: read-out: Axenic Amastigotes EC50. The procedure: (§1) The species Leishmania (Leishmania) amazonensis (IFLA/BR/67/PH8) was maintained in promastigote form at a temperature of 26 °C in a biochemical oxygen demand incubator (BOD) (Eletrolab EL202, São Paulo, Brazil) and in complete Schneider medium (20% heat-inactivated fetal bovine serum (FBS), and 1% antibiotic solution). The L. (L.) amazonensis axenic amastigote forms were obtained through the differentiation of infective promastigote forms using Schneider medium supplemented with 5% FBS, pH 4.6, at a temperature of 32 °C. Parasite growth was observed daily and, if necessary, weekly repeats were performed.
(§2) Promastigote forms or axenic amastigotes in an exponential growth phase were cultured in 96-well plates with complete Schneider’s medium, at 1 × 10^6 parasites/mL. […] The plates were incubated for 72 h under a BOD at 26 °C to prepare promastigotes and 32 °C to prepare amastigotes. When ready, 10 μL of MTT (5 mg/mL) was added to all wells (with the exception of the blank) with an incubation for 4 h. Subsequently, 50 μL of SDS solution (dodecyl sodium sulfate) at 10% was added to dissolve the formazan crystals, and a spectrophotometric reading was then performed (Biotek model ELx800, Winooski, VT, USA) at 540 nm. Schneider medium with 0.5% DMSO was used, considering a 0% growth inhibition for the negative control.

The test system of data set [3] is J774A.1 macrophages infected with L. (L.) amazonensis. Kind of data set: Nitric oxide production by infected macrophages, Griess reagent. The class given is cell-based, murine. Particulars: 3.12 μM, 6.25 μM and 12.5 μM, 72 h, compared to negative control. The procedure: The measurement of NO production (using macrophage infection supernatant) was performed by the production of nitrite with Griess reagent. About 100 µL of infection supernatant was added to a 96-well plate. In parallel, serial concentrations of NaNO2 in RPMI medium were also added to the plate for interpolation of the standard curve. Griess reagent (1% Sulfanilamide in 10% (v/v) H3PO4 in Milli-Q® water and in equal parts to 0.1% naphthylenediamine in Milli-Q® water Q®) was then added and incubated for 10 min at room temperature. At the end of the incubation, a reading was conducted on a plate reader at 540 nm. The positive control was performed with Escherichia coli lipopolysaccharide at 2 μg/mL.
Background: Nitrite, measured by Griess reagent, commonly stands in for NO production.

The test system of data set [4] is J774A.1 macrophages. Kind of data set: Lysosomal activity, neutral red retention. The class given is cell-based, murine. Particulars: 12.5 μM, 6.25 μM and 3.12 μM, 72 h, relative to negative control. The procedure: After this, 10 μL of PBS and 2% red neutral (VN) were added, with incubation in an incubator for another 30 min. Soon afterwards, the supernatant was aspirated and the plates washed 3× with PBS to remove excess VN. […] Finally, the plates were placed under agitation in a Kline apparatus for 30 min, and then read in a spectrophotometer at 540 nm.

Data set [5] has as its system J774A.1 macrophages infected with L. (L.) amazonensis. Kind of data set: ROS production in infected macrophages, H2DCFDA test. The class given is cell-based, murine. As to conditions: 3.12 μM, 6.25 μM and 12.5 μM, 72 h, compared to negative control. The procedure:
Macrophages were incubated in 96-well plates with complete RPMI medium for 3 h at 37 °C, and 5% CO2 for adherence. These were then infected with L. […] Then 10 μL of H2DCFDA was added for a final concentration of 20 μM and incubated for 30 min in the dark at 37 °C. A spectrofluorometer (FLx800) was used to read the fluorescence intensity, using 485 nm of excitation and 528 nm of emission. Antimycin A (5 μM) was used as the positive control for ROS generation.

The test system of data set [6] is L. (L.) amazonensis promastigotes. Kind of data set: Growth inhibition of promastigotes, MTT assay, 72 h. The data set is classed as cell-based. Particulars: Leishmania amazonensis; for IC50: read-out: Promastigotes IC50. The procedure: as §1, §2
For orientation: Tetrazolium assays rely on reduction of a dye to a coloured formazan, in cell work by metabolically active cells.

Data set [7] has as its system J774A.1 macrophages. In words: Phagocytic capacity, neutral-red-stained zymosan. As to conditions: 12.5 μM, 6.25 μM and 3.12 μM, 72 h, compared to negative control. The class given is cell-based, murine. The protocol:
At 72 h, 10 μL of VN-stained zymosan was added and then incubated for 30 min. […] To remove what was not phagocytized by the macrophages, the plate was washed with PBS. The plate extraction solution was added, and then solubilization was performed in a Kline shaker. The board was taken for reading on a spectrophotometer at 540 nm.

Data set [8] can be described thus: Cytotoxicity on VERO cells, MTT assay, 72 h. As to conditions: African green monkey, VERO CCL 81 cells.
Experimental: (§3) Murine J774A.1 lineage macrophages and VERO CCL 81 cells were grown in 750 cm^2 cell culture flasks (Corning Glass Workers, New York, NY, USA) containing complete RPMI medium (10% SFB and 1% stabilized anti-mycotic–antibiotic solution), incubated at 37 °C and 5% CO2. The cells were observed on all days and replicates were always conducted after the cells reached confluence, around 72 to 96 h [22].
(§4) The cytotoxicity assay was performed in 96-well plates using MTT for cell viability observation. Plates containing 100 μL of complete RPMI medium and approximately 5 × 10^5 J774A.1 macrophages or VERO CCL 81 cells were incubated for 4 h at 37 °C and 5% CO2 for cell adhesion to occur. […] As a positive control, the reference drugs meglumine antimoniate (200–40,000 µM) and amphotericin B (0.031–2 µM) were used, and as a negative control, complete RPMI 1640 medium at 0.5% DMSO was used (considering 100% cell viability). After 72 h of incubation at 37 °C and 5% CO2, 10 μL of MTT was added and incubated for another 4 h at room temperature. The medium was then removed, and 100 μL of DMSO was added to dilute the formazan crystals created by the MTT [23]. Finally, the plate was taken to be read at 540 nm in a (Biotek model Elx800) spectrophotometer.
The test system of data set [9] is L. (L.) amazonensis-infected J774A.1 macrophages. In words: Cytokine production in infected macrophages, ELISA. The data set is classed as cell-based, murine. As to conditions: 72 h. The protocol:
According to Rodrigues et al., 2021 [27], to carry out cytokine evaluation, the supernatant saved after the J774A.1 macrophage infection assay was used to evaluate cytokine production. Analysis kits (optEIATM ELISA, Pharmingen, San Diego, CA, USA) were used following the manufacturer’s protocol to examine the release of cytokines (TNF-α, IL-1α, IL-6, IL-10, and IL-12), and standard recombinant cytokines were used to produce a curve. The reading was performed in a spectrophotometer at 450 nm.

The nature of data set [10]: Cytotoxicity on macrophages, MTT assay, 72 h. As to conditions: mouse.
Experimental: as §3, §4
Data set [11] in a line: in vitro. Particulars: African green monkey.
Experimental: as §3, §4
Data set [12] can be described thus: in vitro. As to conditions: mouse.
Experimental: as §3, §4
Data set [13] deals with amastigotes of L. (L.) amazonensis. As to conditions: cited from earlier work.
Data set [14] deals with promastigotes of L. (L.) amazonensis. Particulars: cited from earlier work.
The mark [15] stands for this setting: read-out: growth inhibition of promastigote forms.
Where [16] appears, read: Leishmania amazonensis, read-out: growth inhibition of axenic amastigote forms.

As a reminder, the EC50 is the concentration giving half of the maximal effect. Take “Meglumine antimoniate [reference compound]”: the EC50 in data set [1] (infected J774A.1 macrophages, 72 h) was determined as 541 ± 13.5 µM; in data set [2] (32 °C, MTT) it was 1020 ± 25.7 µM.

As usually defined, the IC50 is the point on the concentration scale where inhibition reaches its midpoint. As usually defined, the inhibition is the drop in the measured response relative to a control, in per cent. As usually defined, the viability is a per cent measure of how many cells are alive, often set against a control. Turning to `CC1(C)C=C2[C@H]3CC[C@@H]4[C@@]5(C)CC[C@H](O)C(C)(C)[C@@H]5CC[C@@]4(C)[C@]3(C)CC[C@@]2(C(=O)O)CC1` [Morolic acid, morolic acid], in data set [1] (1.56 μM, 72 h), the “reduction in macrophage infection rate” value was 34% and the “reduction in the number of internalized amastigotes per infected macrophage” value (from here on “reduction … per infected macrophage”) is 59.1%. Besides, in [1] (3.12 μM, 72 h), the “reduction in macrophage infection rate” value was found to be 77.5% and the “reduction … per infected macrophage” value stood at 71.6%. For the same molecule, in [1] (6.25 μM, 72 h), the “reduction in macrophage infection rate” value is 93% and the “reduction … per infected macrophage” value came out at 86.8%. Further, in data set [1] (12.5 μM, 72 h), the “reduction in macrophage infection rate” value is recorded as 100% and the “reduction … per infected macrophage” value worked out at 100%. Further, the half-maximal effective concentration (EC50) in data set [1] (Leishmania amazonensis, J774.A1, 72 h) stood at 2.56 ± 0.08 µM. Further, the “levels of NO produced in infected macrophages” value in [3] is recorded as “increase”. Besides, the lysosomal activity result in the data set on J774A.1 macrophages [4] is reported as “increased”. For the same molecule, the “levels of ROS produced in infected macrophages” value in data set [5] was “increase”. Also, the IC50 in data set [6] is 1.13 ± 0.04 µM. Further, in data set [6] (setting [15]), the inhibition at 1.56 µM was 57.6%, the inhibition at 3.12 µM stood at 57.9%, the inhibition at 6.25 µM was determined as 83.3% and the inhibition at 12.5 µM is 100%. Besides, in [6] (setting [15]), the inhibition at 25 µM was determined as 100%, the inhibition at 50 µM was 100% and the inhibition at 100 µM is 100%. Besides, in the data set on J774A.1 macrophages [7], the “phagocytic capacity for zymosan” value is listed as “significant increase”. Also, in [8], the CC50 at 72 h came out at 82.9 ± 1.84 µM; the viability at 72 h, 1.56 µM came to 100%; the viability at 72 h, 3.12 µM was determined as 100%; the viability at 72 h, 6.25 µM worked out at 93.2%. In data set [8], this molecule showed a viability at 72 h, 12.5 µM of 88.8%; a viability at 72 h, 25 µM of 79.4%; a viability at 72 h, 50 µM of 71.2%; a viability at 72 h, 100 µM of 38.8%. Besides, in data set [8], the viability at 72 h, 200 µM came out at 24.3%. In [9], the IL-1α levels result is “no effect” and the IL-12 levels result is given as “no effect”. For the same molecule, in data set [9] (at the higher concentration), the “production of TNF-α” value is listed as “significant increase”. In addition, in data set [9] (at the highest concentrations), the IL-6 levels result is on record as “significant reduction” and the IL-10 levels result was “significant reduction”. Besides, the concentration for a half-maximal effect (EC50) in data set [2] (Leishmania amazonensis) turned out to be 2.74 ± 0.03 µM. Also, in [2] (setting [16]), the inhibition at 1.56 µM is 34.1%, the inhibition at 3.12 µM turned out to be 68.6%, the inhibition at 6.25 µM stood at 76.4% and the inhibition at 12.5 µM came to 100%. In addition, in [2] (setting [16]), the inhibition at 25 µM stood at 100%, the inhibition at 50 µM was 100% and the inhibition at 100 µM came to 100%. Further, the CC50 at 72 h in data set [10] stood at 68.6 ± 2.46 µM. In [10] (J774A.1 macrophages), this molecule came in with a viability at 72 h, 1.56 µM of 100%; a viability at 72 h, 3.12 µM of 100%; a viability at 72 h, 6.25 µM of 100%; a viability at 72 h, 12.5 µM of 100%. In data set [10] (J774A.1 macrophages), this molecule registered a viability at 72 h, 25 µM of 100%; a viability at 72 h, 50 µM of 65%; a viability at 72 h, 100 µM of 15%; a viability at 72 h, 200 µM of 0%.

With `C[C@@H]1[C@H](O)[C@@H](C)/C=C/C=C/C=C/C=C/C=C/C=C/C=C/[C@H](O[C@@H]2O[C@H](C)[C@@H](O)[C@H](N)[C@@H]2O)C[C@@H]2O[C@](O)(C[C@@H](O)C[C@@H](O)[C@H](O)CC[C@@H](O)C[C@@H](O)CC(=O)O[C@H]1C)C[C@H](O)[C@H]2C(=O)O` [Amphotericin B, reference compound], the EC50 is 0.29 ± 0.04 µM in data set [1] (Leishmania amazonensis, J774.A1, infected J774A.1 macrophages, 72 h) and 0.23 ± 0.01 µM in data set [2] (Leishmania amazonensis, 32 °C, MTT). In [6] (26 °C, MTT), the IC50 was determined as 0.36 ± 0.03 µM. Also, the CC50 at 72 h worked out at 0.32 ± 0.08 µM in the data set “in vitro [11]” and 0.38 ± 0.06 µM in “in vitro [12]”.

Take `C[C@H]1[C@H](C)CC[C@]2(C(=O)O)CC[C@]3(C)C(=CC[C@@H]4[C@@]5(C)CC[C@H](O)C(C)(C)[C@@H]5CC[C@]43C)[C@H]12` [ursolic acid]: the “IC50 for axenic amastigotes” value in data set [13] (L. (L.) amazonensis axenic amastigotes ref 37) is recorded as 2.24 µg/mL. The IC50 for promastigotes in [14] (L. (L.) amazonensis promastigotes ref 37) is recorded as 14.1 µg/mL.

On to `C=C(C)[C@@H]1CC[C@]2(C)CC[C@]3(C)[C@H](CC[C@@H]4[C@@]5(C)CC[C@H](O)C(C)(C)[C@@H]5CC[C@]43C)[C@@H]12` [Lupeol], for which the “IC50 for amastigote forms” value in [13] (L. (L.) amazonensis amastigote forms ref 38) is given as 44.1 µg/mL. Also, the IC50 for promastigotes in data set [14] (L. (L.) amazonensis promastigotes ref 38) was 39.06 µg/mL.
